# Source: patent US20120141448A1, “Method for increasing muscle mass and strength” (priority 2010, published 2012)
# What was measured:
# [1] = test system: known non-responder to creatine supplementation; assay: Creatine non-responder RJ: two-week strength training program, total body weight and total strength; type: in vivo, human; conditions: subject one
# Protocol: A. patient one, 198 cm tall, a known non-responder to creatine supplementation, followed a two-week strength training program while testing whether supplementation with PA-enriched-lecithin improves creatine response. Total starting total body weight and strength were measured on day one, followed by the training program, consisting of concentric and eccentric isotonic lifting exercises that worked the upper and lower body muscle groups. Either free weights or weight machines were used once or twice weekly. Strength training was performed three times per week with at least one day of rest between sessions, which alternated between lower and upper body exercises. During the two-week period, a total of six training sessions (three upper and three lower) were performed. Each exercise included two sets of ten repetitions at 30% and 60% 1RM, followed by two sets of 3 to 5 repetitions at 90% 1RM.
# The lower body exercise included seven different exercises: seated leg press, leg curls, standing calf raises, leg extensions, inclined leg lift, inverted situps (back extension) and 45° inclined situps. The upper body exercise consisted of seven different exercises: bench press, latissimus pulldown, triceps pulldown, inclined dumbbell curls, seated preacher curls, seated rows, and CyBec Pec Fly.
# Total upper and lower body weight lifted were calculated as the average weight lifted during the last three sets multiplied by the average repetition in each set. Total strength was determined as the combined lower and upper total weight lifted. Total body weight was determined after day 8 and day 15. Strength was measured on days 1 and 15.
# A four-week rest period followed the first two-week training program. The same program was repeated twice, the control was supplementation of creatine monohydrate (Creapure, Alzchem, Germany) 4 times 5 grams per day for five days of loading, followed by nine days of five grams creatine monohydrate. During the second program, creatine monohydrate was given as for the control program with the addition of PA-enriched lecithin (Chemi Nutra, White Bear Lake, Minn.) which was about 50% PA.
# [2] = test system: known non-responder to creatine supplementation; assay: Creatine non-responder MP: three-week strength training program, total body weight and total strength; type: in vivo, human; conditions: subject two
# Protocol: B. patient two, 185 cm tall, also a known non-responder to creatine supplementation, followed a three-week strength training program while testing whether supplementation with PA-enriched-lecithin improves creatine response. Total starting total body weight and strength were measured on day one, followed by the training program, consisting of concentric and eccentric isotonic lifting exercises that worked the upper and lower body muscle groups with either free weights or weight machines used once or twice weekly. Strength training was performed three times per week with at least one day of rest between sessions, which alternated between lower and upper body exercises. During the three-week period, a total of […] were performed. Each exercise included two sets of ten repetitions at 40% and 65% 1RM, followed by two sets of 3 to 5 repetitions at 90% 1RM.
# The lower body exercise included seven different exercises: seated leg press, leg curls, standing calf raises, leg extension, inclined leg lift, inverted situps (back extension) and 45° inclined situps. The upper body exercise consisted of seven different exercises: bench press, latissimus pulldown, triceps pulldown, inclined dumbbell curls, seated preacher curls, seated rows, and CyBec Pec Fly. Total upper and lower body weight lifted were calculated as the average weight lifted during the last three sets multiplied by the average repetition in each set. Total strength was determined as the combined lower and upper total weight lifted. […] Strength was measured on days 1 and 22.
# A four-week rest period followed the first three-week training program. The same program was repeated twice, the control was supplemented with creatine monohydrate (Creapure®, Alzchem, Germany) 5 grams per day of five grams creatine monohydrate for 21 days. During the second program, creatine monohydrate was given as for the control program with the addition of 1 gram per day PA-enriched lecithin (Chemi Nutra, White Bear Lake, Minn.) which was about 50% PA.
structure (smiles),measurement,setting,value
"CN(CC(=O)O)C(=N)N.O [Creatine Supplement, creatine monohydrate]","weight, day 1",[1]; day 1 of two-week program,88.8 kg
same,total strength increase,[1]; day 1 vs day 15,5%
same,"weight, day 8",[1]; day 8 of two-week program,88.3 kg
same,"weight, day 15",[1]; day 15 of two-week program,88.0 kg
same,effect on body weight,[1]; two-week program,not effective in preventing a slight weight loss
same,"weight, day 1",[2]; day 1 of three-week program,81.9 kg
same,total strength increase,[2]; day 1 vs day 22,5%
same,"weight, day 10",[2]; day 10 of three-week program,81.5 kg
same,"weight, day 22",[2]; day 22 of three-week program,81.2 kg
same,effect on body weight,[2]; three-week program,not effective in preventing a slight weight loss
